These results are taken from US10906890B2, “Triazole phenyl compounds as agonists of the APJ receptor” (AMGEN INC., priority 2016, dated 2021).

Structures are written as SMILES.

The assay concerns the target human APJ receptor (Homo sapiens (Human), UniProt P35414). Description: [35S]GTPγS binding assay on membranes from CHO cells stably expressing human APJ receptor. It is filed as biochemical. As to conditions: means of several independent experiments, read-out: Activity hAPJ SPA EC50 IP. The procedure: The human APJ receptor was cloned by polymerase chain reaction and the gene encoding the receptor was subcloned in pFLAG-CMV™-3 expression vector (Sigma, Saint Louis, Mo. USA) in-house at Amgen. A GTPγS binding assay was performed on membranes prepared from CHO cells stably expressing human APJ receptor. The optimum experimental conditions for the concentrations of GDP, MgCl2, and NaCl in the assay buffer were initially determined. […] Incubation was at RT for 90 min and the microplate was read using a ViewLux™ ultra HTS Microplate Imager (PerkinElmer, Inc.). All the results presented are means of several independent experiments and analyzed by non-linear regression methods using the commercially available program Prism (GraphPad, San Diego, Calif.) providing the EC50 values detailed in Table 28.

Sequence of human APJ receptor (P35414 whole entry): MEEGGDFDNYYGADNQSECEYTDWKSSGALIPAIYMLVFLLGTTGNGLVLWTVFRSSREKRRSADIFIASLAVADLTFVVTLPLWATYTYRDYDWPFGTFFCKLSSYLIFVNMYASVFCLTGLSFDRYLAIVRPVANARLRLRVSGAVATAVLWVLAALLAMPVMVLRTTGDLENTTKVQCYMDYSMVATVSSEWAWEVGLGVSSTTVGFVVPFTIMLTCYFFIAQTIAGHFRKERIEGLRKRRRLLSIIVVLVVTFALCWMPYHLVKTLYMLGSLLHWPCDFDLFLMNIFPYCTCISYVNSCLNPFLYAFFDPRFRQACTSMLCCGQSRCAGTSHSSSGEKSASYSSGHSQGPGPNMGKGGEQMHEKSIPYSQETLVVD

Turning to `COCCn1c(NS(=O)(=O)[C@@H](C)[C@H](OC)c2ncc(Cl)cn2)nnc1-c1ccccc1` [Example 129.0], the EC50 is 14 nM.
Turning to `COc1ncnc(OC)c1-n1c(NS(=O)(=O)[C@H]2C[C@@H](OC(C)C)CN(c3ncc(F)cn3)C2)nnc1-c1ccccc1` (single isomer, unassigned) [Example 64.0, (3R,5S)-N-(4-(4,6-dimethoxy-5-pyrimidinyl)-5-phenyl-4H-1,2,4-triazol-3-yl)-1-(5-fluoro-2-pyrimidinyl)-5-(1-methylethoxy)-3-piperidinesulfonamide or (3S,5R)-N-(4-(4,6-dimethoxy-5-pyrimidinyl)-5-phenyl-4H-1,2,4-triazol-3-yl)-1-(5-fluoro-2-pyrimidinyl)-5-(1-methylethoxy)-3-piperidinesulfonamide], the EC50 is 4.7 nM.
For `COc1cccc(OC)c1-n1c(NS(=O)(=O)[C@@H](C)[C@H](OC)c2ncc(C)cn2)nnc1-c1ccc2c(c1)CCO2` [Example 80.0, (1R,2S)-N-(5-(2,3-dihydro-1-benzofuran-5-yl)-4-(2,6-dimethoxyphenyl)-4H-1,2,4-triazol-3-yl)-1-methoxy-1-(5-methyl-2-pyrimidinyl)-2-propanesulfonamide], the EC50 was found to be 3.5 nM.
On to `COc1ccccc1-c1nnc(NS(=O)(=O)[C@@H](C)[C@H](OC)c2ncc(Cl)cn2)n1[C@@H]1CCCOC1` [Example 118.0], for which the EC50 was determined as 180 nM.
As to `C[C@H](c1ncc(Cl)cn1)[C@H](C)S(=O)(=O)Nc1nnc(-c2ccccc2)n1C1CCOCC1` [Example 61.0, (2S,3R)-3-(5-chloro-2-pyrimidinyl)-N-(5-phenyl-4-(tetrahydro-2H-pyran-4-yl)-4H-1,2,4-triazol-3-yl)-2-butanesulfonamide], the EC50 was found to be 69 nM.
Take `COc1cccc(OC)c1-n1c(NS(=O)(=O)[C@@H](C)[C@H](OC)c2ncc(C)cn2)nnc1-c1ccc2nccnc2c1` [Example 84.0, (1R,2S)-N-(4-(2,6-dimethoxyphenyl)-5-(6-quinoxalinyl)-4H-1,2,4-triazol-3-yl)-1-methoxy-1-(5-methyl-2-pyrimidinyl)-2-propanesulfonamide]: the EC50 came to 55 nM.
For the compound `Cc1cnc([C@H](OC(C)C)[C@H](C)S(=O)(=O)Nc2nnc(-c3ccccc3)n2C2(C)CC2)nc1` [Example 99.0], the EC50 turned out to be 8 nM.
With `COc1cccc(OC)c1-n1c(NS(=O)(=O)[C@H]2CCCN(c3ncc(F)cn3)C2)nnc1-c1ccccc1` (single isomer, unassigned) [Example 21.0, (3S)—N-(4-(2,6-Dimethoxyphenyl)-5-phenyl-4H-1,2,4-triazol-3-yl)-1-(5-fluoro-2-pyrimidinyl)-3-piperidinesulfonamide or (3R)—N-(4-(2,6-dimethoxyphenyl)-5-phenyl-4H-1,2,4-triazol-3-yl)-1-(5-fluoro-2-pyrimidinyl)-3-piperidinesulfonamide], the EC50 turned out to be 7.3 nM.
Consider `COc1cccc(OC)c1-n1c(NS(=O)(=O)[C@@H](C)[C@H](OC)c2ncc(C)cn2)nnc1-c1ccc(Oc2ccccc2)cc1` [Example 82.0, (1R,2S)-N-(4-(2,6-dimethoxyphenyl)-5-(4-phenoxyphenyl)-4H-1,2,4-triazol-3-yl)-1-methoxy-1-(5-methyl-2-pyrimidinyl)-2-propanesulfonamide], for which the EC50 is over 4200 nM.
For `COc1cccc(OC)c1-n1c(NS(=O)(=O)[C@@H](C)[C@H](OC)c2ncc(C)cn2)nnc1-c1ccc(OC(F)(F)F)cc1` [Example 69.0, (1R,2S)-N-(4-(2,6-dimethoxyphenyl)-5-(4-(trifluoromethoxy)phenyl)-4H-1,2,4-triazol-3-yl)-1-methoxy-1-(5-methyl-2-pyrimidinyl)-2-propanesulfonamide], the EC50 came out at 35 nM.
For `COc1cccc(OC)c1-n1c(NS(=O)(=O)[C@@H](C)[C@H](OC)c2ncc(C)cn2)nnc1-c1cccc([C@](C)(O)C(F)(F)F)c1` (mixture of isomers) [Example 88.0, (1R,2S)—N-(4-(2,6-Dimethoxyphenyl)-5-(3-((1S)-2,2,2-trifluoro-1-hydroxy-1-methylethyl)phenyl)-4H-1,2,4-triazol-3-yl)-1-methoxy-1-(5-methyl-2-pyrimidinyl)-2-propanesulfonamide and (1R,2S)—N-(4-(2,6-dimethoxyphenyl)-5-(3-((1R)-2,2,2-trifluoro-1-hydroxy-1-methylethyl)phenyl)-4H-1,2,4-triazol-3-yl)-1-methoxy-1-(5-methyl-2-pyrimidinyl)-2-propanesulfonamide], the 50% effective concentration (EC50) is 23 nM.
For the compound `COc1cccc(OC)c1-n1c(NS(=O)(=O)[C@@H](C)[C@H](OC)c2ncc(C)cn2)nnc1-c1ccc(C)cc1` [Example 78.0, (1R,2S)-N-(4-(2,6-dimethoxyphenyl)-5-(4-methylphenyl)-4H-1,2,4-triazol-3-yl)-1-methoxy-1-(5-methyl-2-pyrimidinyl)-2-propanesulfonamide], the concentration for a half-maximal effect (EC50) came to 2.4 nM.
As to `COc1ncnc(OC)c1-n1c(NS(=O)(=O)[C@@H](C)[C@H](C)c2ncc(Cl)cn2)nnc1-c1ccccc1` [Example 17.0, (2S,3R)-3-(5-chloro-2-pyrimidinyl)-N-(4-(4,6-dimethoxy-5-pyrimidinyl)-5-phenyl-4H-1,2,4-triazol-3-yl)-2-butanesulfonamide], the EC50 was found to be 0.89 nM.
In the case of `COc1cccc(OC)c1-n1c(NS(=O)(=O)[C@@H](C)[C@H](OC)c2ncc(C)cn2)nnc1-c1cccc2cnccc12` [Example 95.0], the EC50 amounted to 340 nM.
For the compound `COCC(COC)n1c(NS(=O)(=O)[C@@H](C)[C@H](OC)c2ncc(Cl)cn2)nnc1-c1ccccc1` [Example 96.0, (1R,2S)-1-(5-Chloro-2-pyrimidinyl)-N-(4-(1,3-dimethoxy-2-propanyl)-5-phenyl-4H-1,2,4-triazol-3-yl)-1-methoxy-2-propanesulfonamide], the EC50 is 16 nM.
To `COc1cccc(OC)c1-n1c(NS(=O)(=O)[C@@H](C)[C@H](OC)c2ncc(Cl)cn2)nnc1-c1cccc2cn(C)nc12` [Example 91.0] belongs 2 nM; to `COc1cccc(-c2nnc(NS(=O)(=O)[C@@H](C)[C@H](OC)c3ncc(C)cn3)n2-c2c(OC)ncnc2OC)c1` [Example 6.0, (1R,2S)-N-(4-(4,6-dimethoxy-5-pyrimidinyl)-5-(3-methoxyphenyl)-4H-1,2,4-triazol-3-yl)-1-methoxy-1-(5-methyl-2-pyrimidinyl)-2-propanesulfonamide], 6.8 nM.
With `CO[C@H](c1ncc(Cl)cn1)[C@H](C)S(=O)(=O)Nc1nnc(-c2cccc3nn(C)cc23)n1C1CC1` [Example 115.0] the figure was 11 nM; with `COc1cccc(OC)c1-n1c(NS(=O)(=O)[C@@H](C)[C@H](OC)c2ncc(C)cn2)nnc1-c1ccc(C(C)(C)C)cc1` [Example 65.0, (1R,2S)—N-(5-(4-tert-Butylphenyl)-4-(2,6-dimethoxyphenyl)-4H-1,2,4-triazol-3-yl)-1-methoxy-1-(5-methyl-2-pyrimidinyl)-2-propanesulfonamide], 230 nM; with `COc1cccc(OC)c1-n1c(NS(=O)(=O)[C@@H](C)[C@H](OC)c2ncc(C)cn2)nnc1-c1cccc(Br)c1` [Example 81.0, (1R,2S)-N-(5-(3-bromophenyl)-4-(2,6-dimethoxyphenyl)-4H-1,2,4-triazol-3-yl)-1-methoxy-1-(5-methyl-2-pyrimidinyl)-2-propanesulfonamide], 0.27 nM.
On to `COc1cccc(OC)c1-n1c(NS(=O)(=O)[C@@H](C)[C@H](OC)c2ncc(C)cn2)nnc1-c1ccc2c(c1)OC(F)(F)O2` [Example 39.0, (1R,2S)-N-(5-(2,2-difluoro-1,3-benzodioxol-5-yl)-4-(2,6-dimethoxyphenyl)-4H-1,2,4-triazol-3-yl)-1-methoxy-1-(5-methyl-2-pyrimidinyl)-2-propanesulfonamide], for which the EC50 came out at 160 nM.
On to `COc1cccc(OC)c1-n1c(NS(=O)(=O)[C@@H](C)[C@H](O)c2ncc(C)cn2)nnc1-c1ccccc1` [Example 18.0, (1R,2S)-N-(4-(2,6-dimethoxyphenyl)-5-phenyl-4H-1,2,4-triazol-3-yl)-1-hydroxy-1-(5-methyl-2-pyrimidinyl)-2-propanesulfonamide], for which the EC50 turned out to be 0.81 nM.
To `Cc1cnc([C@H](OC(C)C)[C@H](C)S(=O)(=O)Nc2nnc(-c3ccccc3)n2-c2c(F)cccc2F)nc1` [Example 42.0, (1S,2S)-N-(4-(2,6-difluorophenyl)-5-phenyl-4H-1,2,4-triazol-3-yl)-1-(1-methylethoxy)-1-(5-methyl-2-pyrimidinyl)-2-propanesulfonamide] belongs 3.4 nM.
Turning to `COc1cccc(OC)c1-n1c(NS(=O)(=O)[C@@H](C)[C@H](OC)c2ncc(C)cn2)nnc1-c1cccc2ncccc12` [Example 90.0], the 50% effective concentration (EC50) was found to be 540 nM.
For `COc1ccnc(OC)c1-n1c(NS(=O)(=O)[C@@H](C)[C@H](C)c2cnc(C)cn2)nnc1-c1ccccc1` (single isomer, unassigned) [Example 55.0, (2S,3R,P)-N-(4-(2,4-dimethoxy-3-pyridinyl)-5-phenyl-4H-1,2,4-triazol-3-yl)-3-(5-methyl-2-pyrazinyl)-2-butanesulfonamide or (2S,3R,M)-N-(4-(2,4-dimethoxy-3-pyridinyl)-5-phenyl-4H-1,2,4-triazol-3-yl)-3-(5-methyl-2-pyrazinyl)-2-butanesulfonamide], the EC50 stood at 0.33 nM.
Consider `COc1cccc(-c2nnc(NS(=O)(=O)[C@@H](C)[C@H](OC)c3ncc(C)cn3)n2-c2c(OC)cccc2OC)c1` [Example 76.0, (1R,2S)-N-(4-(2,6-dimethoxyphenyl)-5-(3-methoxyphenyl)-4H-1,2,4-triazol-3-yl)-1-methoxy-1-(5-methyl-2-pyrimidinyl)-2-propanesulfonamide], for which the EC50 turned out to be 0.51 nM.
